In US7556796B2, “Directed complementation” (AVEO Pharmaceuticals, Inc., priority 2005, dated 2009):

How the values were obtained:
[1] = Maximum tolerated dose (previously determined); conditions: mouse, in vivo; already determined to be near MTD for this drug
[2] = tested on: propagated tumors from Her2-dependent inducible spontaneous breast tumors; assay: Drug response assay with propagated Her2-dependent primary breast tumors; format: in vivo, mouse; conditions: 15 or 30 mg/kg, three doses at 5-day intervals, one week after last dosing
Description: From each primary tumor, about 0.1 million cells/site were injected sub-cutaneously into 30 sites on immunocompromised mice, which were then fed with doxycycline water. Each mouse received two injections, one on each side of its back (subcutaneous). Thus, one primary tumor was expanded into 30 propagated tumors onto 15 mice, each of the mice developing two tumors on its back. Out of these thirty tumors, 10 tumor-bearing mice were treated with vehicle (5 parts Tween-80, 5 parts absolute ethyl alcohol, 90 parts 5% dextrose), another 10 tumor bearing-mice were treated with 15 mg/kg docetaxel (Biochemika, cat. No. 01885), and the remaining 10 tumor-bearing mice were treated with 30 mg/kg docetaxel (which was already determined to be near MTD for this drug). In total, five primary tumors were expanded to 150 tumors in 75 animals.
When the tumors reached approximately 5 mm^3 in size, the treatments were begun. The animals were given three doses with 5-day intervals. The experiment was terminated one week after the final dosing. Among propagated tumors derived from any given primary tumor, uniformity in terms of latency, growth rate and drug response was expected (intra-tumoral uniformity). In contrast, among propagated tumors derived from different primary tumors variation in terms of growth rate, latency and drug response was expected (inter-tumoral variation). […]

SMILES: CC(=O)O[C@@]12CO[C@@H]1C[C@H](O)[C@@]1(C)C(=O)[C@H](O)C3=C(C)[C@@H](OC(=O)[C@H](O)[C@@H](NC(=O)OC(C)(C)C)c4ccccc4)C[C@@](O)([C@@H](OC(=O)c4ccccc4)[C@H]21)C3(C)C [docetaxel]
- MTD [1]: ~30 mg/kg
- drug response (tumor size vs vehicle) ([2]; propagated tumors from one of the five primary tumors): significant reduction in tumor growth
- drug response (tumor size vs vehicle) ([2]; propagated tumors from the remaining four of five primary tumors): did not show any effect
